System: blood brain barrier
Assay: Evaluation on intracranial blood brain barrier penetrating effect of a GM1 micelle (animal living body fluorescence imaging)
Format: in vivo
Conditions: healthy mice, intravenous injection of tails, FIG. 2
Protocol: According to the preparation method of DOX-GM1 in the example 1, a fluorescent dye DiR-GM1 mixed micelle was prepared according to the same method. DiR-GM1 micelle and free-DiR were intravenous injected of tails of the healthy mice. The distribution and strength of the DiR fluorescence in tissues are observed and recorded by the animal living body imagery at different time points.

entry into the brain / blood-brain barrier penetration: cannot enter the brain
fluorescence distribution (DiR) in tissues (in-vivo imaging at different time points): concentrated in the liver
SMILES: CCCCCCCCCCCCCCCCCCN1/C(=C/C=C/C=C/C=C/C2=[N+](CCCCCCCCCCCCCCCCCC)c3ccccc3C2(C)C)C(C)(C)c2ccccc21.[I-] [DiR solution]

— patent US10039713B1, “Drug-loaded ganglioside micelle and the preparation method and use thereof” (Chongqing University, priority 2017, dated 2018)
